From patent US20220362120A1, “STABILIZATION OF RESORCINOL COMPOUNDS IN COSMETIC COMPOSITIONS” (Conopco, Inc., d/b/a UNILEVER, priority 2019, published 2022)

Key:
[1] = Quantitation of 4-alkyl resorcinols by HPLC (peak area @ 281 nm vs freshly prepared control); assay type: physicochemical; settings: for 4-Alkylresorcinol (% of control): after 2 weeks at R.T. (~20-22° C.), HPLC, mean of duplicates, DI water:butylene glycol (4:1)
Procedure: The amount of 4-alkylresorcinol present in each of the samples used for the color measurements was quantitated after 2 weeks @ R.T. (˜20-22° C.) by high performance liquid chromatography (HPLC). An sample aliquot (100 uL) from each of the color measurement solutions was diluted with DI water:acetonitrile (1:1, 900 uL) to generate test samples (1 ml). An aliquot (10 uL) from each test sample was injected into a Waters 2695 Separations Module, chromatographed and separated on a Restek Pinnacle DB C18 (5 um, 4.6×150 mm) column operated at 30° C. and the 4-alkylresorcinols monitored using a Waters 2996 Photodiode Array Detector set @ 281 nm. The mobile phase consisted of water (A) and acetonitrile (B) and optimum separation was achieved using a gradient from 95:5 (A:B) to 5:95 (A:B) in 20 min, followed by isocratic elution at 5:95 (A:B) for 3 min at a flow rate of 1 ml/min. The chromatographic data was processed using Empower 2 software (Waters Corporation, Milford, Mass.). Standard control samples of 4-alkylresorcinols at 1×, 5× higher and 5× lower concentrations were prepared fresh and immediately analysed; standard curves were generated within the test sample range and linearity was confirmed.
All samples were analyzed in duplicate and the mean value reported. The amount of 4-alkylresorcinol present for each test sample after 2 weeks was determined by measuring the chromatographic peak area under the curve @ 281 nm for the 4-alkylresorcinol and expressed as the percent ratio over the corresponding chromatographic peak area under the curve @ 281 nm for the freshly prepared control sample.

[2] = Color evaluation of 4-alkylresorcinol solutions (visual and L*a*b*, Labscan XE) after 2 weeks at R.T.; assay type: physicochemical; settings: for Appearance (visual appearance of solution) / L* / b* / a*: after 2 weeks at R.T. (~20-22° C.), DI water:butylene glycol (4:1); for L*: black (L*=0) to white (L*=100); for b*: blue (b*<0) to yellow (b*>0); for a*: green (a*<0) to red (a*>0)
Procedure: Samples for color evaluation were prepared by dissolving 4-hexylresorcinol (200 mg) or 4-ethylresorcinol (200 mg) in DI water:butylene glycol (4:1; 20 ml) to generate a clear colorless homogeneous solution. A portion of each solution (5 ml) was added to a 20 ml scintilation vial containing either niacinamide (B3) (50 mg), AceMet (acetyl methionine) (50 mg) or B3 (50 mg)+AceMet (50 mg) and monitored @ R.T. (˜20-22° C.). After 2 weeks, the color of each solution was assessed visually and L*a*b* measurements determined experimentally using a Labscan XE instrument (Hunter Associates Labs Inc., Reston, Va.) and processed with Universal Software (version 4.10). The L* parameter measures darkness and lightness and ranges from black (L*=0) to white (L*=100). The a* parameter measures color content and intensity ranging from green (a*<0) to neutral grey (a*=0) to red (a*>0). The b* parameter also measures color content and intensity ranging from blue (b*<0) to neutral grey (b*=0) to yellow (b*>0).

| 4-Alkylresorcinol (% of control) [1] | Appearance (visual appearance of solution) [2] | L* [2] | b* [2] | a* [2] | decrease of the level of HR ([1]; HR solution after 2 weeks) [%] | decomposition of HR ([1]; HR solution with addition of B3, after 2 weeks) [%] | decomposition upon HPLC analysis ([1]; freshly prepared solution) | color of solution ([2]; freshly prepared solution) | Compound |
| --- | --- | --- | --- | --- | --- | --- | --- | --- | --- |
| 96 % of control | light orange | 82.74 | 39.57 | 6.38 | – | – | – | – | CCc1ccc(O)cc1O [1% ER, 4-ethylresorcinol] |
| 60 % of control | reddish-pink | 84.77 | 13.4 | 11.4 | 40 | 55 | no decomposition | colorless | CCCCCCc1ccc(O)cc1O [1% HR, 4-hexylresorcinol] |
